Literature values in US9631212B2, “Gene cluster for biosynthesis of cornexistin and hydroxycornexistin” (BASF SE, priority 2012, dated 2017).
Where two headings read alike, the source gives them in different places.

Key:
[1] = in vivo
[2] = tested on: corn plants

Compound	activity as a herbicide [1]	activity as a herbicide ([1]; listed as Cornexistin)	activity towards corn plants [2]	activity towards corn plants ([2]; listed as Cornexistin)
C/C=C1/CC2=C(C(=O)OC2=O)[C@H](CCC)[C@H](O)C(=O)C[C@@H]1O [cornexistin]	highly potent herbicides	good activity as a herbicide	harmless to corn plants	relative inactivity towards corn plants
CCC[C@H]1C2=C(C/C(=C/CO)[C@@H](O)CC(=O)[C@H]1O)C(=O)OC2=O [hydroxycornexistin]	highly potent herbicides		harmless to corn plants	
